Results taken from ChEMBL document CHEMBL3885861, “Open TG-GATES”.

Species: Rattus norvegicus
Assay: Open TG-GATES - Regimen: Single
Assay type: toxicity, organism-based, Sprague-Dawley
Design: regimen Single, gender Male, age 6 weeks
Conditions: in vivo, po, 0 mg/kg, route gavage, dose level Control; for APTT / Bas / Eos / Fbg / Ht / Lym / MCHC / MCV / Mono / PT / Plat / RBC / Ret / WBC / Hb: tissue Blood; for KIDNEY_L / KIDNEY_R / KIDNEY_TOTAL: tissue Kidney; for LIVER: tissue Liver; for ALP / ALT / AST / BUN / CRE / DBIL / GLC / IP / K / LDH / RALB / TBIL / TC / TP / gamma-GTP / PL: tissue Plasma

SMILES: CN(C)CCCN1c2ccccc2CCc2ccccc21 [IMIPRAMINE]
- TERMINAL_BW (3 h): 203.9 g
- APTT (3 h): 16.9 s
- Bas (3 h): 0.2%
- Eos (3 h): 1%
- Fbg (3 h): 270.6 mg/dL
- Ht (3 h): 40.9%
- Lym (3 h): 79.2%
- MCHC (3 h): 32.3%
- MCV (3 h): 64.7 fL
- Mono (3 h): 2.8%
- PT (3 h): 15.9 s
- Plat (3 h): 112.7 x10_4/uL
- RBC (3 h): 632.8 x10_4/ul
- Ret (3 h): 8.2%
- WBC (3 h): 81.7 x10_2/uL
- KIDNEY_L (3 h): 0.9 g
- KIDNEY_R (3 h): 0.9 g
- KIDNEY_TOTAL (3 h): 1.7 g
- LIVER (3 h): 9.1 g
- ALP (3 h): 1571.6 IU/L
- ALT (3 h): 52 IU/L
- AST (3 h): 84.6 IU/L
- BUN (3 h): 9 mg/dL
- CRE (3 h): 0.2 mg/dL
- DBIL (3 h): 0.01 mg/dL
- GLC (3 h): 183.2 mg/dL
- IP (3 h): 8.9 mg/dL
- K (3 h): 4 meq/L
- LDH (3 h): 111 IU/L
- RALB (3 h): 2.6 g/dL
- TBIL (3 h): 0.07 mg/dL
- TC (3 h): 84 mg/dL
- TP (3 h): 5.4 g/dL
- gamma-GTP (3 h): 1.6 IU/L
- TERMINAL_BW (6 h): 201.5 g
- APTT (6 h): 15.5 s
- Bas (6 h): 0.4%
- Eos (6 h): 0.8%
- Fbg (6 h): 326 mg/dL
- Hb (6 h): 12.8 g/dL
- Ht (6 h): 39.2%
- Lym (6 h): 73.2%
- MCHC (6 h): 32.5%
- MCV (6 h): 63.9 fL
- Mono (6 h): 3%
- PT (6 h): 15.8 s
- Plat (6 h): 112.2 x10_4/uL
- RBC (6 h): 614.8 x10_4/ul
- Ret (6 h): 7.6%
- WBC (6 h): 95 x10_2/uL
- KIDNEY_L (6 h): 0.9 g
- KIDNEY_R (6 h): 0.9 g
- KIDNEY_TOTAL (6 h): 1.9 g
- LIVER (6 h): 9.1 g
- ALP (6 h): 1465 IU/L
- ALT (6 h): 52.8 IU/L
- AST (6 h): 99.2 IU/L
- BUN (6 h): 8.4 mg/dL
- CRE (6 h): 0.2 mg/dL
- GLC (6 h): 176.2 mg/dL
- IP (6 h): 9.4 mg/dL
- K (6 h): 4 meq/L
- LDH (6 h): 80.4 IU/L
- PL (6 h): 133.6 mg/dL
- RALB (6 h): 2.5 g/dL
- TBIL (6 h): 0.07 mg/dL
- TC (6 h): 72.6 mg/dL
- TP (6 h): 5.3 g/dL
- gamma-GTP (6 h): 1.2 IU/L
- TERMINAL_BW (9 h): 200.5 g
- APTT (9 h): 16 s
- Bas (9 h): 0.4%
- Eos (9 h): 1%
- Fbg (9 h): 291.6 mg/dL
- Hb (9 h): 12.9 g/dL
- Ht (9 h): 40.1%
- Lym (9 h): 80.8%
- MCHC (9 h): 32.3%
- MCV (9 h): 65.1 fL
- Mono (9 h): 2.4%
- PT (9 h): 15.3 s
- Plat (9 h): 110.6 x10_4/uL
- RBC (9 h): 615.4 x10_4/ul
- Ret (9 h): 8.2%
- WBC (9 h): 76.7 x10_2/uL
- KIDNEY_L (9 h): 0.9 g
- KIDNEY_R (9 h): 0.9 g
- KIDNEY_TOTAL (9 h): 1.8 g
- LIVER (9 h): 8.2 g
- ALP (9 h): 1396.6 IU/L
- ALT (9 h): 37.4 IU/L
- AST (9 h): 69.6 IU/L
- BUN (9 h): 8 mg/dL
- CRE (9 h): 0.1 mg/dL
- DBIL (9 h): 0.008 mg/dL
- GLC (9 h): 178 mg/dL
- IP (9 h): 9.9 mg/dL
- K (9 h): 4.1 meq/L
- LDH (9 h): 59 IU/L
- PL (9 h): 136 mg/dL
- RALB (9 h): 2.5 g/dL
- TBIL (9 h): 0.068 mg/dL
- TC (9 h): 74.4 mg/dL
- TP (9 h): 5.2 g/dL
- gamma-GTP (9 h): 1 IU/L
- TERMINAL_BW (24 h): 217.3 g
- APTT (24 h): 17.1 s
- Bas (24 h): 0.2%
- Eos (24 h): 1.2%
- Fbg (24 h): 265.2 mg/dL
- Ht (24 h): 41.7%
- Lym (24 h): 76.2%
- MCHC (24 h): 32.1%
- MCV (24 h): 66.7 fL
- Mono (24 h): 2.8%
- PT (24 h): 16.1 s
- Plat (24 h): 114.2 x10_4/uL
- RBC (24 h): 626.2 x10_4/ul
- Ret (24 h): 7.8%
- WBC (24 h): 93.4 x10_2/uL
- KIDNEY_L (24 h): 0.9 g
- KIDNEY_R (24 h): 0.9 g
- KIDNEY_TOTAL (24 h): 1.8 g
- LIVER (24 h): 10.2 g
- ALP (24 h): 1689.2 IU/L
- ALT (24 h): 59 IU/L
- AST (24 h): 83.4 IU/L
- CRE (24 h): 0.2 mg/dL
- DBIL (24 h): 0.02 mg/dL
- GLC (24 h): 185.4 mg/dL
- IP (24 h): 8.1 mg/dL
- K (24 h): 3.9 meq/L
- LDH (24 h): 75.2 IU/L
- RALB (24 h): 2.6 g/dL
- TBIL (24 h): 0.06 mg/dL
